Several values for one entry are separate records, joined by “and”; a condition that tells them apart may be missing. Equal entries are not always repeated.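 A five-concentration, 48-hour dose response in 96-well plates underlies each endpoint, interpolated linearly between surrounding concentrations. GI50 marks 50% less growth. TGI: concentration producing complete growth inhibition.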
Legend:
Experiment in all cases: DTP human tumour cell line panel, 48 h
[1] = test system: DU-145 prostate
[2] = test system: MALME-3M melanoma
[3] = test system: MDA-MB-231 breast
[4] = test system: A549 NSCLC
[5] = test system: KM12 colon
[6] = test system: TK-10 renal
[7] = test system: HOP-92 NSCLC
[8] = test system: RXF 393 renal
[9] = test system: OVCAR-5 ovarian
[10] = test system: HOP-62 NSCLC

Compound	GI50 [1]	TGI [1]	GI50 [2]	TGI [2]	GI50 [3]	TGI [3]	GI50 [4]	TGI [4]	GI50 [5]	TGI [5]	GI50 [6]	TGI [6]	GI50 [7]	TGI [7]	GI50 [8]	TGI [8]	GI50 [9]	TGI [9]	GI50 [10]	TGI [10]
Cc1ccc(-c2csc(/N=C3\C(=O)Nc4ccccc43)n2)cc1	2.16 µM	5.99 µM	1.52 µM	3.4 µM	1.52 µM	3.48 µM	2.98 µM	11.3 µM	1.86 µM	4.51 µM	2.52 µM	5.15 µM	1.24 µM	3.29 µM	1.49 µM	3.16 µM	1.93 µM	4.57 µM	–	–
CN[C@H]1C=C[C@@H]2/C=C(C)/C=C/[C@@H](C)[C@H]([C@H](C)[C@H](O)[C@@H](C)NC(C)=O)OC(=O)/C=C/C=C(C)\C=C\[C@]2(C)C1	–	> 49 µM	0.0808 µM and 0.0458 µM	21.7 µM	0.0049 µM	9.97 µM	0.0049 µM	> 49 µM	0.00963 µM	> 49 µM	0.0611 µM and 0.259 µM	> 49 µM	< 0.001 µM and 0.0049 µM	0.0661 µM and 0.0222 µM	< 0.001 µM and 0.00674 µM	28.7 µM	10.3 µM	> 49 µM	0.00765 µM	> 49 µM
Cn1cc(C2=C(c3cn(CCCCN)c4ccccc34)C(=O)NC2=O)c2ccccc21	> 25 µM	> 25 µM	> 25 µM	> 25 µM	> 25 µM	> 25 µM	> 25 µM	> 25 µM	> 25 µM	> 25 µM	> 25 µM	> 25 µM	–	–	> 25 µM	> 25 µM	> 25 µM	> 25 µM	> 25 µM	> 25 µM
Cc1cnc(NC(=O)Nc2cc(Br)c(C)cc2OC[C@@H]2CNCCO2)cn1	2.08 µM and 0.659 µM	> 10 µM and 11.5 µM	1.63 µM and 1.94 µM	> 10 µM and 6.55 µM	2.96 µM and 1.48 µM	> 10 µM and 7.39 µM	1.71 µM and 1.93 µM	> 10 µM and 15.8 µM	1.2 µM and 1.19 µM	> 10 µM and 11.9 µM	0.703 µM and 2.18 µM	> 10 µM and 16.6 µM	0.546 µM and 0.389 µM	> 10 µM and 5.72 µM	0.564 µM and 0.219 µM	–	2.1 µM and 1.96 µM	> 10 µM and 13.4 µM	0.539 µM and 1.65 µM	> 10 µM and 14.2 µM
CCc1cccc(C)c1NC(=O)c1sc2nc3c(cc2c1N)CCCCC3	3.28 µM	> 100 µM	9.11 µM	84.4 µM	4.35 µM	> 100 µM	4.14 µM	> 100 µM	3.46 µM	> 100 µM	13.4 µM	> 100 µM	13.3 µM	60.3 µM	1.6 µM	6.4 µM	7.74 µM	> 100 µM	4.34 µM	> 100 µM
COc1ccc(-c2cc(=O)c3ccc(C)nc3[nH]2)cc1	–	> 100 µM	–	> 100 µM	–	> 100 µM	–	> 100 µM	–	> 100 µM	–	> 100 µM	–	> 100 µM	–	> 100 µM	–	> 100 µM	–	> 100 µM
C=C1C(O)C2C(=C(CCc3ccccc3)C13CC3)C(=O)C(C)(CO)C2O (stereo unspecified)	> 100 µM	> 100 µM	> 100 µM	> 100 µM	> 100 µM	> 100 µM	> 100 µM	> 100 µM	> 100 µM	> 100 µM	57.4 µM	> 100 µM	12.5 µM	> 100 µM	> 100 µM	> 100 µM	> 100 µM	> 100 µM	> 100 µM	> 100 µM
CC(=O)OCC1OC(n2c(-c3ccc(Cl)cc3)ccc(C#N)c2=S)C(OC(C)=O)C(OC(C)=O)C1OC(C)=O (stereo unspecified)	–	> 100 µM	–	> 100 µM	10.2 µM and 42.9 µM	47.1 µM and > 100 µM	–	> 100 µM	–	> 100 µM	29.4 µM and 62.3 µM	64.1 µM and > 100 µM	3.96 µM and 22.2 µM	18.8 µM and > 100 µM	–	36.3 µM and 74.5 µM	–	> 100 µM	–	26.1 µM and > 100 µM
CC(C)=CCc1c(OC(=O)c2c(C)cc(O)cc2O)cc(CO)c(CO)c1O	–	70.4 µM	–	45.4 µM	–	48.3 µM	–	62.2 µM	–	30.6 µM	–	77.9 µM	–	52.3 µM	–	–	–	43.1 µM	–	–
CC(C)CCC(=O)c1ccoc1	–	> 100 µM	–	> 100 µM	–	> 100 µM	–	> 100 µM	–	> 100 µM	–	> 100 µM	–	> 100 µM	–	> 100 µM	–	> 100 µM	–	> 100 µM
CN(C)CCCNC(=O)c1cc(NC(=O)c2cc(NC(=O)CCc3c[nH]c4ccccc34)cn2C)cn1C	> 100 µM	> 100 µM	> 100 µM	> 100 µM	> 100 µM	> 100 µM	> 100 µM	> 100 µM	> 100 µM	> 100 µM	> 100 µM	> 100 µM	72.8 µM	> 100 µM	> 100 µM	> 100 µM	> 100 µM	> 100 µM	–	–
O=C1c2ccccc2-c2c1c1c(=O)[nH]c3ccccc3c1n2Cc1ccccc1	43.8 µM	> 100 µM	37.1 µM	> 100 µM	20.5 µM	48 µM	> 100 µM	> 100 µM	> 100 µM	> 100 µM	15.1 µM	29.2 µM	15.8 µM	51.5 µM	29.7 µM	70.4 µM	49.5 µM	> 100 µM	25.6 µM	49.1 µM
O=c1c(Oc2ccc(F)cc2F)cc2cnc(NC3CCOCC3)nc2n1CCCO	> 25 µM	> 25 µM	> 25 µM	> 25 µM	> 25 µM	> 25 µM	> 25 µM	> 25 µM	> 25 µM	> 25 µM	> 25 µM	> 25 µM	> 25 µM	> 25 µM	> 25 µM	> 25 µM	> 25 µM	> 25 µM	> 25 µM	> 25 µM
CCC[CH2][Sn]([CH2]CCC)([CH2]CCC)[O]c1ccc(Cl)cc1Cl	0.13 µM	0.271 µM	0.0973 µM	0.238 µM	0.122 µM	0.284 µM	0.159 µM	0.345 µM	0.0939 µM	0.244 µM	0.215 µM	0.61 µM	0.0733 µM	0.384 µM	0.142 µM	0.296 µM	0.14 µM	0.298 µM	0.146 µM	0.294 µM
COc1ccc2c(c1)C(=O)c1c-2n(CCCN=[N+]=[N-])c(=O)c2cc(OC)c(OC)cc12	26.6 µM	> 100 µM	66.4 µM	> 100 µM	> 100 µM	> 100 µM	33 µM	> 100 µM	> 100 µM	> 100 µM	19.5 µM	72.1 µM	9.13 µM	44.6 µM	–	–	> 100 µM	> 100 µM	11.6 µM	63.2 µM
CC(C(=O)c1ccccc1)C(c1ccccc1)N1CCOCC1 (stereo unspecified)	–	> 100 µM	–	> 100 µM	–	> 100 µM	–	> 100 µM	–	> 100 µM	–	> 100 µM	–	> 100 µM	–	> 100 µM	–	> 100 µM	–	> 100 µM
Cc1nc(SCC(=O)Nc2nc(-c3ccc(Cl)cc3)cs2)n(Nc2ccccc2)c1C	5.64 µM	18.7 µM	10.8 µM	37.6 µM	3.01 µM	15.2 µM	2.9 µM	11.6 µM	2.95 µM	14 µM	3.65 µM	13.8 µM	1.61 µM	6.89 µM	2.98 µM	7.33 µM	2.65 µM	13.5 µM	3.06 µM	9.63 µM
COc1cc(OC)cc(N(CCNC(C)C)c2ccc3ncc(-c4cnn(C)c4)nc3c2)c1	5.29 µM	17.9 µM	6.48 µM	21.5 µM	4.63 µM	18.4 µM	5.33 µM	19.1 µM	7.53 µM	21.8 µM	2.81 µM	12.1 µM	3.32 µM	15.5 µM	1.2 µM	5.16 µM	5.42 µM	19.8 µM	4.63 µM	20 µM
Nc1ccc(C2=NN(c3ccccc3)C(c3ccc(Cl)cc3)C2)cc1 (stereo unspecified)	3.54 µM	11.3 µM	16.2 µM	43.8 µM	2.38 µM	6.98 µM	2.45 µM	7.98 µM	1.68 µM	3.11 µM	2.13 µM	6.16 µM	2.61 µM	17.3 µM	1.55 µM	3.12 µM	10.6 µM	24.8 µM	2.01 µM	5.05 µM
CC[N+](CC)=c1sc2c(s1)C(c1ccc(Cl)cc1)Oc1ccc(Cl)cc1-2 (stereo unspecified)	3.32 µM	10.6 µM	1.44 µM	3.88 µM	1.93 µM	4.35 µM	1.86 µM	6.9 µM	0.456 µM	1.91 µM	3.38 µM	6.61 µM	2.4 µM	5.66 µM	2.26 µM	4.86 µM	2.32 µM	6.11 µM	1.22 µM	5.56 µM
O=C(CO[N+](=O)[O-])Nc1ccc(C(=O)/C=C/c2ccc(Cl)cc2)cc1	3.41 µM	13.5 µM	2.13 µM	6.61 µM	5.39 µM	21.2 µM	5.71 µM	20.6 µM	1.54 µM	3.1 µM	8.37 µM	25.1 µM	2.95 µM	15.2 µM	4.82 µM	17.8 µM	14.8 µM	36 µM	3.11 µM	9.73 µM
COc1cccc(-c2nc3sccn3c2-c2ccnc(NCCCNS(=O)(=O)c3cccc(F)c3)c2)c1	3.04 µM	> 100 µM	2.23 µM	7.24 µM	3.62 µM	> 100 µM	2.99 µM	> 100 µM	3.17 µM	27.3 µM	3.8 µM	31.9 µM	1.52 µM	> 100 µM	2.47 µM	> 100 µM	4.41 µM	> 100 µM	2.83 µM	29.1 µM
CCN(Cc1cccc(F)c1)c1ccc(CO)c(Cl)c1	26.9 µM	> 100 µM	20 µM	50.1 µM	19 µM	> 55.3 µM	2.31 µM	35 µM	22.1 µM	> 68.7 µM	–	–	1.86 µM	20.8 µM	5.28 µM	27.8 µM	0.148 µM	0.605 µM	1.02 µM	> 37.6 µM
CO[C@H]1/C=C/O[C@@]2(C)Oc3c(C)c(O)c4c(c3C2=O)C(=O)C(/C=N/N(c2ccccc2)c2ccccc2)=C(NC(=O)/C(C)=C\C=C\[C@H](C)[C@H](O)[C@@H](C)[C@@H](O)[C@@H](C)[C@H](OC(C)=O)[C@@H]1C)C4=O	1.93 µM	3.51 µM	1.89 µM	3.59 µM	1.7 µM	3.35 µM	1.69 µM	3.29 µM	1.75 µM	3.24 µM	1.87 µM	3.55 µM	1.88 µM	3.52 µM	–	–	1.83 µM	3.72 µM	1.71 µM	3.17 µM
O=C(CP(=O)(O)O)NC(CC(=O)OCc1ccccc1)C(=O)OCc1ccccc1 (stereo unspecified)	–	> 100 µM	–	> 100 µM	–	> 100 µM	–	> 100 µM	–	–	–	–	–	> 100 µM	–	> 100 µM	–	> 100 µM	–	> 100 µM
COc1cc(-c2cc3ncccc3c3nc(N)c4cccnc4c23)cc(OC)c1OC	0.487 µM	3.13 µM	–	–	1.25 µM	> 100 µM	0.434 µM	12.9 µM	0.36 µM	33.4 µM	1.15 µM	9.29 µM	9.17 µM	> 100 µM	0.742 µM	6.48 µM	4.98 µM	> 100 µM	0.599 µM	87.1 µM
CCCC(=O)NC1=C(Cl)C(=O)c2ccccc2C1=O	–	20.9 µM	–	–	–	17.4 µM	–	16.9 µM	–	15.2 µM	–	15.6 µM	–	3.22 µM	–	6.08 µM	–	15.4 µM	–	25.7 µM
Nc1ccccc1C(=O)CC1OC(=O)c2ccccc21 (stereo unspecified)	–	> 100 µM	–	> 100 µM	–	> 100 µM	–	> 100 µM	–	> 100 µM	–	> 100 µM	–	> 100 µM	–	–	–	> 100 µM	–	> 100 µM

Source: PubChem BioAssay (NCI)
